In brackets after ≈: the same amount, converted by molar mass.
Assays:
Format in all cases: functional, organism-based
[1] = system: Plasmodium falciparum; assay: Antiplasmodial activity against chloroquine-sensitive Plasmodium falciparum 3D7 infected in human erythrocyte incubated for 72 hrs by SYBR green I staining based fluorescence assay; details: 3D7, Erythrocyte
[2] = system: Plasmodium yoelii yoelii; assay: Antimalarial activity against hepatic stage Plasmodium yoelii yoelii 265 BY for 48 hrs with media renew every 24 hrs
[3] = system: Plasmodium falciparum; assay: Antimalarial activity against blood stage chloroquine-sensitive Plasmodium falciparum NF54-R infected in erythrocytes assessed as reduction in parasite growth preincubated for 72 hrs followed by addition of [3H]Hypoxanthine and measured after 24 hrs by liquid scintillation counting method; details: Erythrocyte
[4] = system: Plasmodium falciparum; assay: Antimalarial activity against blood stage chloroquine-sensitive Plasmodium falciparum 3D7 infected in erythrocytes assessed as reduction in parasite growth preincubated for 72 hrs followed by addition of [3H]Hypoxanthine and measured after 24 hrs by liquid scintillation counting method; details: 3D7, Erythrocyte

| SMILES | IC50 [1] [nM] | IC50 [2] [µg/mL] | IC50 [3] [µg/mL] | IC50 [4] [µg/mL] |
| --- | --- | --- | --- | --- |
| C=CC1CC2CCC1CC2[C@H](OC(=O)[C@H](Cc1ccccc1)NC(=O)C1=CN2C3C(=C(N4CCN(C)CC4)C(F)=CC3C1=O)OC[C@@H]2C)c1cccc2ccc(OC)cc12 (stereo partly drawn) | 48 |  |  |  |
| C=CC1CC2CCC1CC2[C@H](OC(=O)[C@H](Cc1ccccc1)NC(=O)C1=CN(CC)C2C=C3OCOC3=CC2C1=O)c1cccc2ccc(OC)cc12 (stereo partly drawn) | 115 |  |  |  |
| C=CC1CC2CCC1CC2[C@H](OC(=O)[C@H](C)NC(=O)C1=CN(CC)C2C=C3OCOC3=CC2C1=O)c1cccc2ccc(OC)cc12 (stereo partly drawn) | 29 |  |  |  |
| C=CC1CC2CCC1CC2[C@H](OC(=O)CNC(=O)C1=CN(CC)C2C=C(C)C=CC2C1=O)c1cccc2ccc(OC)cc12 (stereo partly drawn) | 46 |  |  |  |
| C=CC1CC2CCC1CC2[C@H](OC(=O)CNC(=O)C1=CN(C2CC2)C2C=C(N3CCN(CC)CC3)C(F)=CC2C1=O)c1cccc2ccc(OC)cc12 (stereo partly drawn) | 28 |  |  |  |
| C=CC1CC2CCC1CC2[C@H](OC(=O)[C@H](C)NC(=O)C1=CN2C3C(=C(N4CCN(C)CC4)C(F)=CC3C1=O)OC[C@@H]2C)c1cccc2ccc(OC)cc12 (stereo partly drawn) | 33 |  |  |  |
| C=CC1CC2CCC1CC2[C@H](OC(=O)CNC(=O)C1=CN2C3C(=C(N4CCN(C)CC4)C(F)=CC3C1=O)OC[C@@H]2C)c1cccc2ccc(OC)cc12 (stereo partly drawn) | 12 |  |  |  |
| C=CC1CC2CCC1CC2[C@H](OC(=O)[C@@H](NC(=O)C1=CN(CC)C2C=C(C)C=CC2C1=O)C(C)C)c1cccc2ccc(OC)cc12 (stereo partly drawn) | 16 |  |  |  |
| C=CC1CC2CCC1CC2[C@H](OC(=O)[C@@H](NC(=O)C1=CN(CC)C2C=C3OCOC3=CC2C1=O)C(C)C)c1cccc2ccc(OC)cc12 (stereo partly drawn) | 183 |  |  |  |
| CCn1nc(C(=O)O)c(=O)c2cc3c(cc21)OCO3 [CINOXACIN] |  | 36.3 (≈ 138 µM) | 28.5 (≈ 109 µM) | 118 (≈ 451 µM) |
| NC1CCN(c2c(F)cc3c(=O)c(C(=O)O)cn(C4CC4)c3c2Cl)C1 (stereo not drawn) [CLINAFLOXACIN] |  | 90.2 (≈ 247 µM) | 3.3 (≈ 9.02 µM) | 13.7 (≈ 37.5 µM) |
| CN1CCN(c2c(F)cc3c(=O)c(C(=O)O)cn(CCF)c3c2F)CC1 [FLEROXACIN] |  | > 100 | 12.9 (≈ 34.9 µM) | 34.6 (≈ 93.7 µM) |
| CC1CCc2cc(F)cc3c(=O)c(C(=O)O)cn1c23 (stereo not drawn) [FLUMEQUINE] |  | > 100 | 14.1 (≈ 54 µM) | 38.3 (≈ 147 µM) |
| COc1c(N2CCNC(C)C2)c(F)cc2c(=O)c(C(=O)O)cn(C3CC3)c12 (stereo not drawn) [GATIFLOXACIN] |  | > 100 | 10.9 (≈ 29 µM) | 34.8 (≈ 92.7 µM) |
| Cc1c(F)c(N2CCNC(C)C2)cc2c1c(=O)c(C(=O)O)cn2C1CC1 (stereo not drawn) [GREPAFLOXACIN] |  | 4.4 (≈ 12.2 µM) | 3.1 (≈ 8.63 µM) | 4.5 (≈ 12.5 µM) |
| CCn1cc(C(=O)O)c(=O)c2cc(F)c(-n3cccc3)cc21 [IRLOXACIN] |  | > 100 | 10.5 (≈ 35 µM) | 49.4 (≈ 165 µM) |
| CN1CCN(c2c(F)cc3c(=O)c(C(=O)O)cn4c3c2OCN4C)CC1 [MARBOFLOXACIN] |  | > 100 | 21.6 (≈ 59.6 µM) | 30.8 (≈ 85 µM) |
| COc1c(N2C[C@@H]3CCCN[C@@H]3C2)c(F)cc2c(=O)c(C(=O)O)cn(C3CC3)c12 [MOXIFLOXACIN] |  | > 100 | 18 (≈ 44.8 µM) | 44.8 (≈ 112 µM) |
| CCn1cc(C(=O)O)c(=O)c2cnc(N3CCNCC3)nc21 [PIPEMIDIC ACID] |  | > 100 | 10.5 (≈ 34.6 µM) | 40.9 (≈ 135 µM) |
| CCn1cc(C(=O)O)c(=O)c2cnc(N3CCCC3)nc21 [PIROMIDIC ACID] |  | 21.6 (≈ 74.9 µM) | 14.4 (≈ 49.9 µM) | 41.4 (≈ 144 µM) |
| CCn1cc(C(=O)O)c(=O)c2ccc(-c3ccncc3)cc21 [ROSOXACIN] |  |  | 10.6 (≈ 36 µM) | 87.9 (≈ 299 µM) |
| CN1CCN(c2c(F)cc3c(=O)c(C(=O)O)cn4c3c2SCC4)CC1 [RUFLOXACIN] |  | 47.8 (≈ 132 µM) | 30.1 (≈ 82.8 µM) | 81.9 (≈ 225 µM) |
| C[C@@H]1CN(c2c(F)c(N)c3c(=O)c(C(=O)O)cn(C4CC4)c3c2F)C[C@H](C)N1 [SPARFLOXACIN] |  | 53 (≈ 135 µM) | 73.9 (≈ 188 µM) | 143 (≈ 364 µM) |
| CC1CN(c2cc3c(cc2F)c(=O)c(C(=O)O)cn3-c2ccc(F)cc2F)CCN1 (stereo not drawn) [TEMAFLOXACIN] |  | 72.2 (≈ 173 µM) | 14.1 (≈ 33.8 µM) | 34.9 (≈ 83.6 µM) |
